In US8772463B2, “Fluorescent dye-labeled glucose bioprobe, synthesis method and usage thereof” (SNU R&DB Foundation, priority 2007, dated 2014):

Experiments:
A549 cells [1] = test: Direct competition of Cy3-Glc-α uptake with D-glucose / L-glucose; assay type: cell-based, human; details: 37° C.
Description: 1×10^4 cells were cultured on a Lab-Tek glass chamber slide (Nalge Nunc International, Naperville, Ind., USA) in 35 mm cell culture dish. After 24 h, the cells were treated for each experimental purpose. Then, the medium was replaced with RPMI 1640 medium containing 12.5 μM of Cy3-Glc-α. The cells were exposed to Cy3-Glc-α for 40 min, then washed with PBS 3 times. Finally, the glass chamber slide was taken from culture dish and loaded on the fluorescence microscope (Axiovert 200, Carl Zeiss, Germany). Fluorescence images of 35-50 cells were taken by CCD camera (Axiocam MRm, Germany) and fluorescence intensity of each cell was measured by Axiovision (program for data analysis). An area as ROIs (regions of interest) which contains a cell in phase-contrast image was drawn using Axiovision. Axiovision analyzed CCD camera images and provided the digitized mean of fluorescence intensity in the ROIs that the present inventors had established. The present inventors subtracted the background intensity from the fluorescence intensity to get the fluorescence intensity value that a cell contained. With the method described above, the present inventors digitized fluorescence intensity and performed various experiments. […]

NIH/3T3 cells [2] = test: FACS-based flow cytometric analysis of probe uptake with/without 11 mM D-glucose; assay type: cell-based, murine; details: probe 5 μM; glucose-depleted condition normalized to 100
Description: FACS (Fluorescence Activated Cell Sorting)-based flow cytometric analysis was used to compare cellular uptake efficiency in NIH/3T3 cells among the glucose probe [2-(N-Cy3-piperazinoethyl)]-α-D-glucose (GB2-Cy3), synthesized in Example 2, the conventional fluorescent glucose probe 2-NBDG and the glucose probe Cy3-Glc-α, synthesized in Example 1.
NIH/3T3 cells were cultured on 10 cm cell culture dishes and transferred in a volume of 3×10^5 cells into each FACS tube (5 mL, BD). They were washed once with cold PBS before incubation at 37° C. for 30 min in 11 mM D-glucose-containing PBS or glucose-free PBS in the presence of the bioprobe [GB2-Cy3 (5 μM), 2-NBDG (5 μM or 50 μM) or Cy3-Glc-α (5 μM)]. Cells that were incubated without the bioprobes were used as a negative control. After being washed with cold PBS, 1×10^4 NIH/3T3 cells were analyzed on FACSCalibur™ (FACS-based flow cytometer). GBs-Cy3 was detected by FL2 channels. Raw data of 1×10^4 cells are shown in histograms, with the mean values thereof given in the graph of FIG. 21.

A549 cells [3] = test: Cy3-Glc-α intracellular uptake efficiency, confocal laser scanning microscope (CLSM); assay type: cell-based, human; details: CLSM live-cell imaging
Description: 1×10^4 cells were cultured on a Lab-Tek glass chamber slide (Nalge Nunc International, Naperville, Ind., USA) in 35 mm cell culture dish. After 24 h, the glass chamber slide was taken from culture dish and loaded on chamber. Then, the chamber was attached to the microscope. The temperature of the chamber was maintained at 37° C. After injection of 12.5 μM of Cy3-Glc-α in RPMI 1640 in the chamber, the fluorescent image was taken every 60 sec, digitized, and saved on a computer for later analysis.
(1) To evaluate the applicability of the fluorescent glucose analogue (Cy3-Glc-α) of the present invention, finally obtained in Example 1, as a bioprobe, the intracellular uptake efficiency of Cy3-Glc-α was measured by using a confocal laser scanning microscope (CLSM).
(2) In addition, the experiment was performed by using the confocal laser scanning microscope to measure the optimum incubation time required to achieve the maximum uptake of the analogue Cy3-Glc-α.

NIH/3T3 cells [4] = test: Cy3-Glc-α uptake in normal cells versus cancer cells, inverted fluorescent microscope; assay type: cell-based, murine
Description: 1×10^4 cells were cultured on a Lab-Tek glass chamber slide (Nalge Nunc International, Naperville, Ind., USA) in 35 mm cell culture dish. After 24 h, the cells were treated for each experimental purpose. Then, the medium was replaced with RPMI 1640 medium containing 12.5 μM of Cy3-Glc-α. The cells were exposed to Cy3-Glc-α for 40 min, then washed with PBS 3 times. Finally, the glass chamber slide was taken from culture dish and loaded on the fluorescence microscope (Axiovert 200, Carl Zeiss, Germany). Fluorescence images of 35-50 cells were taken by CCD camera (Axiocam MRm, Germany) and fluorescence intensity of each cell was measured by Axiovision (program for data analysis). An area as ROIs (regions of interest) which contains a cell in phase-contrast image was drawn using Axiovision. Axiovision analyzed CCD camera images and provided the digitized mean of fluorescence intensity in the ROIs that the present inventors had established. The present inventors subtracted the background intensity from the fluorescence intensity to get the fluorescence intensity value that a cell contained. With the method described above, the present inventors digitized fluorescence intensity and performed various experiments.
(2) Based on this observation, further studies in bioimaging and bioapplication were performed only with the α anomer as choice of the bioprobe. […]

cells = test: Cell viability, CCK-8 kit; assay type: cell-based; details: Cy3-Glc-α 12.5 μM
Description: (2) Therefore, Cy3-Glc-α should not affect cell viability. The viability of cells treated with Cy3-Glc-α (12.5 μM) by using a CCK-8 kit (Cell Counting Kit-8, Dojindo, Japan) was measured by using an ELISA plate reader (ELx800™, BioTex, USA) DP. CCK-8 is a colorimetric assay for determining the number of viable cells in cell proliferation and cytotoxicity assays. The principle of measuring cell viability of CCK-8 is the same as that of MTT. However, CCK-8 is more sensitive than MTT.

C[N+]1=C(/C=C/C=C2/N(CCCCC(=O)NCCOCCOCCNCCOC3OC(CO)C(O)C(O)C3O)c3ccccc3C2(C)C)C(C)(C)c2ccccc21 [Cy3-Glc-α, [2-(N-Cy3-3,6-dioxaoctane-1,8-diaminoethyl)]-α-D-glucose]
uptake versus L-glucose in the medium (A549 cells [1]; 50 mM L-glucose): not influenced by the concentration of L-glucose | uptake versus concentration of D-glucose in the medium (A549 cells [1]; RPMI 1640 lacking glucose, 10 mM or 50 mM D-glucose): decreased as the concentration of D-glucose in the medium increased | reduction in cellular uptake due to 11 mM D-glucose (NIH/3T3 cells [2]): about 50% | incubation time to maximum uptake (A549 cells [3]): ≤ 35 min | Cy3-Glc-α uptake in NIH/3T3 relative to that of A549 cells (NIH/3T3 cells [4]): 30% | cell viability (cells): does not affect cell viability
